In US10653141B2, “Compositions and methods for attracting mosquitoes and repelling sand flies” (priority 2014, dated 2020):

What was measured:
[1] = test system: Phlebotomus dubosqui; assay: Dual-choice bioassay, treated vs control chamber; format: in vivo; details: 1,200 mg DEET
Text: Through a series of dual-choice bioassays, a new combination of plant volatile semiochemicals was identified, which acts as a powerful repellent against two vector species of sand flies, Lutzomyia longipalpis and Phlebotomus dubosqui (vectors of leishmaniasis). […] Female sand flies repelled from host environments will be less likely to obtain a blood meal, reducing egg production, while aggregation by males, which typically occurs near hosts, will also be impeded by the presence of a repellent. Both of these interventions will lead to a decrease in reproductive success within the treated area, and over time, a reduction in sand fly population size.
Vectrax can also be deployed as a vehicle for the controlled release of repellent plant volatiles, to manage sand fly populations. […] This plant-based repellent formulation could reduce sand fly populations in a number of ways. Female sand flies repelled from host environments by Vectrax will be less likely to obtain a blood meal, reducing egg production, while lek formation by males, which typically occurs near hosts, will also be impeded by the presence of a repellent. Both of these interventions will lead to a decrease in reproductive success within the treated area, and over time, a reduction in sand fly population size.

[2] = test system: mosquitoes; assay: Laboratory and mesocosm trials of Vectrax bait blended with insecticide; format: in vivo
Text: Vectrax Bait Stations. To apply Vectrax within bait stations, the formulation—again, previously shaken or stirred—is loaded into a reservoir that provides the target insects with easy access to the attractant material, similar to a hummingbird feeder. […] In order to maintain maximum A&K efficiency, the toxicant component should be blended into the Vectrax attractant formulation as close to the time of application as possible. The attractant or A&K formulation may be loaded into the bait station in amounts ranging from a few grams to several liters, depending on the desired field life. If desired, a sponge or other absorbent material may be applied with the formulation, to facilitate landing by the mosquitoes. As with Vectrax-baited traps, Vectrax bait stations may be deployed singly, as a means to divert or attract and kill mosquitoes in sensitive environments (i.e., rural residences, backyards, recreational activity sites), or as part of a mosquito management strategy, placed at whatever locations and whatever density is thought to be required.

`CCN(CC)C(=O)c1cccc(C)c1` [DEET, N, N-diethyl-meta-toluamide] was tested, and the “flies selecting the untreated over the treated chamber (repellency)” value [1] was 79%.

For `CNC(=O)c1cc(C#N)cc(C)c1NC(=O)c1cc(Br)nn1-c1ncccc1Cl` [cyazypyr], the “efficacy as insecticide blended into Vectrax attract and kill bait” value [2] was “quite effective”.
